Here are results for five compounds from ChEMBL document CHEMBL2424622, “Development of amino-pyrimidine inhibitors of c-Jun N-terminal kinase (JNK): kinase profiling guided optimization of a 1,2,3-benzotriazole lead” (Bioorg Med Chem Lett, 2013).

What is called inhibition is how much of the control response was suppressed.

Structures are written as SMILES.

For experiment [1], the target named is Serine/threonine-protein kinase 26 (Homo sapiens) (UniProt Q9P289). Description: Competitive binding affinity to MST4 (unknown origin) at 10 uM in presence of ATP relative to control.
Chain of Serine/threonine-protein kinase 26 (Homo sapiens) (Q9P289 2-416 limits assumed): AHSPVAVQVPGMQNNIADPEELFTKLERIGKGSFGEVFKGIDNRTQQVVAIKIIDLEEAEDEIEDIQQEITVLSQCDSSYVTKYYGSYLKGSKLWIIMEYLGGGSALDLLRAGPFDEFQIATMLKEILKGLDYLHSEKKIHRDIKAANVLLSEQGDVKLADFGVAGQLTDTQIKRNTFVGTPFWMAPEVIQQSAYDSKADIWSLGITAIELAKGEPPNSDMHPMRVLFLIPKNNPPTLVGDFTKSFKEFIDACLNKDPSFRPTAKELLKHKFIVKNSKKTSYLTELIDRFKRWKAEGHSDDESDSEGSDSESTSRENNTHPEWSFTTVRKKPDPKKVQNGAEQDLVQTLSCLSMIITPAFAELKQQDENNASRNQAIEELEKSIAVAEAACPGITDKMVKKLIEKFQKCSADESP
For experiment [2], the target named is T1, Serine/threonine-protein kinase BRSK2 (Homo sapiens) (UniProt Q8IWQ3).
T1 sequence (whole entry): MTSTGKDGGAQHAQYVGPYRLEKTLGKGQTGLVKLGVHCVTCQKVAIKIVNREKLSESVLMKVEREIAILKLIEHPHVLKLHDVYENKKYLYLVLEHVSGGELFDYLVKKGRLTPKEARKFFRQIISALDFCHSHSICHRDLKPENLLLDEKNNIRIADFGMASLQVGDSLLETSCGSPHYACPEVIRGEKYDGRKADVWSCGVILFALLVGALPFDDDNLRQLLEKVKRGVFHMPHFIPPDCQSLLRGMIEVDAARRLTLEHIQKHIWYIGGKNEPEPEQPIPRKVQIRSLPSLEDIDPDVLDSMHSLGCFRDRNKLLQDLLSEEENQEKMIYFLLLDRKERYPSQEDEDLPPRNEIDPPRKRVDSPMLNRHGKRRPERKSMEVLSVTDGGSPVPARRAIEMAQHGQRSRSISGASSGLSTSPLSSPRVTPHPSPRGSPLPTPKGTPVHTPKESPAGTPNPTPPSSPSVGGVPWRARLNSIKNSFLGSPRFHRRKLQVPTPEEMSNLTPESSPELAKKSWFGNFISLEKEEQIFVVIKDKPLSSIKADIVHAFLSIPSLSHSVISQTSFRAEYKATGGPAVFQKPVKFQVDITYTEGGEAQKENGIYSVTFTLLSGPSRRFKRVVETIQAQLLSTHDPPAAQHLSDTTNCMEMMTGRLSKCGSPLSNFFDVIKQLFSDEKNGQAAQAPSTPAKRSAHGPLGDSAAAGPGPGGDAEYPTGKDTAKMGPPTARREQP
Put plainly: Competitive binding affinity to BRSK2 (unknown origin) at 10 uM in presence of ATP relative to control.

The target of experiment [3] is T2, Tyrosine-protein kinase ZAP-70 (Homo sapiens) (UniProt P43403).
T2 sequence (whole entry): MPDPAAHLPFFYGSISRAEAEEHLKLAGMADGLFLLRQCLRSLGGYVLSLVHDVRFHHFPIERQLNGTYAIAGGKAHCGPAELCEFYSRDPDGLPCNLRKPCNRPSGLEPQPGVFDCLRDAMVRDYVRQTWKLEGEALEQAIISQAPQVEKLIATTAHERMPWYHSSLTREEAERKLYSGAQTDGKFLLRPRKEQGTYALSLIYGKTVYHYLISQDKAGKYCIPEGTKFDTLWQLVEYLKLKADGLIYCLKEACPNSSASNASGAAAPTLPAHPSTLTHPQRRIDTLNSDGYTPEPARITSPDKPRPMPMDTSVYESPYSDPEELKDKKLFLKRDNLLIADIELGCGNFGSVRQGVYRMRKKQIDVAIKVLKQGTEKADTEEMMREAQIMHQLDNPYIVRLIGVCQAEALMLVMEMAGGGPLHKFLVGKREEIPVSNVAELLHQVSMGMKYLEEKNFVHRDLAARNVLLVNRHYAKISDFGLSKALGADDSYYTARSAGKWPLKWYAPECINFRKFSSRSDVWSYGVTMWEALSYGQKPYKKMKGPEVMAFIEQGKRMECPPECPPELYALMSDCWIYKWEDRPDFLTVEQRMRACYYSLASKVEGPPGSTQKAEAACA
Description: Competitive binding affinity to ZAP70 (unknown origin) at 10 uM in presence of ATP relative to control.

Experiment [4] concerns the target Cyclin-dependent kinase 7 (Homo sapiens, UniProt P50613). Put plainly: Competitive binding affinity to CDK7 (unknown origin) at 10 uM in presence of ATP relative to control.
Experiment [5] deals with T3, Testis-specific serine/threonine-protein kinase 1 (Homo sapiens) (UniProt Q9BXA7).
T3 sequence (whole entry): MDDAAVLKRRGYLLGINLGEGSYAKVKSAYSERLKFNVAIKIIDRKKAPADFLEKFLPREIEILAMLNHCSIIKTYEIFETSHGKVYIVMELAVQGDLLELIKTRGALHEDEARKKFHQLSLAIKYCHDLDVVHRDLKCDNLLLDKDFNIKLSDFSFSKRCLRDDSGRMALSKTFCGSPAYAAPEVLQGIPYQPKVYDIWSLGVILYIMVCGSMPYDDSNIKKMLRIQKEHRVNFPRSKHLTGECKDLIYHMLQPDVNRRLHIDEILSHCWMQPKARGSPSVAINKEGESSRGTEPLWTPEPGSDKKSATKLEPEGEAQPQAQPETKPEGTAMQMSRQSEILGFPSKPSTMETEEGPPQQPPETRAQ
Description: Competitive binding affinity to TSSK1 (unknown origin) at 10 uM in presence of ATP relative to control.

The target of experiment [6] is Serine/threonine-protein kinase SIK2 (Homo sapiens) (UniProt Q9H0K1). Put plainly: Competitive binding affinity to SNF1LK2 (unknown origin) at 10 uM in presence of ATP relative to control.
Chain of Serine/threonine-protein kinase SIK2 (Homo sapiens) (Q9H0K1 whole entry, looked up): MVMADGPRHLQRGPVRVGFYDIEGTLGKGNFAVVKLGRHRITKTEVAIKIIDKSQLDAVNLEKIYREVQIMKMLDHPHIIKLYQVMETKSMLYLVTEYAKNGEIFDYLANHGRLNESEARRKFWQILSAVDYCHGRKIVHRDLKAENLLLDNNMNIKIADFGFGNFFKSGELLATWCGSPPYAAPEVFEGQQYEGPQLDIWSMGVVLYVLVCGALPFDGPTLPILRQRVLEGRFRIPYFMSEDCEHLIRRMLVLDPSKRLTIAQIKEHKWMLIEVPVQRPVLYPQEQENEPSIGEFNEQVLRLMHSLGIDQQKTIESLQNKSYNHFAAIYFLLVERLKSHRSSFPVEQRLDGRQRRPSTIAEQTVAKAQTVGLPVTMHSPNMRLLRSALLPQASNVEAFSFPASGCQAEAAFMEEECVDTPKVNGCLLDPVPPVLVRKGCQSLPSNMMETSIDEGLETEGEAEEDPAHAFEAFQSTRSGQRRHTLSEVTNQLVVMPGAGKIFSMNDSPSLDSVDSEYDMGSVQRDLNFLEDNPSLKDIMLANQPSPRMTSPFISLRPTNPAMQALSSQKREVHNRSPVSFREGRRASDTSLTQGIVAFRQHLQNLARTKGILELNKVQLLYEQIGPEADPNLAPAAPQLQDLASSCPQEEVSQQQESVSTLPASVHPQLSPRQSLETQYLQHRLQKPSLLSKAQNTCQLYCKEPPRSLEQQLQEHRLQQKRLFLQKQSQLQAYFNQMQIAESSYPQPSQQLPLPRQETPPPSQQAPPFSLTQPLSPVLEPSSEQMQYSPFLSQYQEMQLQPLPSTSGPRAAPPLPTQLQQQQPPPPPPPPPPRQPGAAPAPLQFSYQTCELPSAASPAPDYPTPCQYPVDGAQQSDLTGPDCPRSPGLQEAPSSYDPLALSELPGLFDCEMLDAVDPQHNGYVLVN
The target in experiment [7] is Serine/threonine-protein kinase 25 (Homo sapiens) (UniProt O00506). Put plainly: Competitive binding affinity to YSK1 (unknown origin) at 10 uM in presence of ATP relative to control.
Chain of Serine/threonine-protein kinase 25 (Homo sapiens) (O00506 whole entry, looked up): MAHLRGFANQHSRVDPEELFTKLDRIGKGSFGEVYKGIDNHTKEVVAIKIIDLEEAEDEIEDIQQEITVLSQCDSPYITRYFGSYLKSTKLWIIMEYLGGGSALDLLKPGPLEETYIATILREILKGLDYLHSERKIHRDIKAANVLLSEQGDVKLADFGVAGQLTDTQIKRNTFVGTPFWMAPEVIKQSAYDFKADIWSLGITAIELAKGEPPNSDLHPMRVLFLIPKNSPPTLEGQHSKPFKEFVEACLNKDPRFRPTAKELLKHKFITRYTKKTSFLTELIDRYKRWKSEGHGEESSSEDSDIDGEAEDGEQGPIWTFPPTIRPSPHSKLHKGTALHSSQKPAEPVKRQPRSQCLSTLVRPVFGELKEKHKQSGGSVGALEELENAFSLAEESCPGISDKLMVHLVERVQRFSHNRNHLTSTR
Experiment [8] has as its target T4, Interleukin-1 receptor-associated kinase 3 (Homo sapiens) (UniProt Q9Y616).
T4 sequence (whole entry): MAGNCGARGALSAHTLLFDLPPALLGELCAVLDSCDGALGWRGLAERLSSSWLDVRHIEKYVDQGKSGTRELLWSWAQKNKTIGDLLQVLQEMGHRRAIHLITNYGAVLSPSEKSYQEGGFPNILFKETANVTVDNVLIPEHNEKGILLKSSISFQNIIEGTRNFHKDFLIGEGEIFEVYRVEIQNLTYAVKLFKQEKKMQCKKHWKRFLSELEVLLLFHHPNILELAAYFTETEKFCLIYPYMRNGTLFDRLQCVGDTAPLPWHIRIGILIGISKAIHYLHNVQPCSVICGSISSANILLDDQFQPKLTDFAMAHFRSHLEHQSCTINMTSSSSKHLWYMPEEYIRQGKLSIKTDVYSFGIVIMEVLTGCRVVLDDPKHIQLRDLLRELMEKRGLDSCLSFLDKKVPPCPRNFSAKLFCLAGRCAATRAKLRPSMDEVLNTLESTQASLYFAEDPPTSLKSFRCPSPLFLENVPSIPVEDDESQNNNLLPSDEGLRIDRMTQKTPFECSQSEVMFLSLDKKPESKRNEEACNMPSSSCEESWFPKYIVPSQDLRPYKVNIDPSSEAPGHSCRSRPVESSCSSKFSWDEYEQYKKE
Put plainly: Competitive binding affinity to IRAK3 (unknown origin) at 10 uM in presence of ATP relative to control.

Experiment [9] concerns the target Cyclin-dependent kinase 19 (Homo sapiens) (UniProt Q9BWU1). Description: Competitive binding affinity to CDK19 (unknown origin) at 10 uM in presence of ATP relative to control.

Chain of Cyclin-dependent kinase 7 (P50613 whole entry): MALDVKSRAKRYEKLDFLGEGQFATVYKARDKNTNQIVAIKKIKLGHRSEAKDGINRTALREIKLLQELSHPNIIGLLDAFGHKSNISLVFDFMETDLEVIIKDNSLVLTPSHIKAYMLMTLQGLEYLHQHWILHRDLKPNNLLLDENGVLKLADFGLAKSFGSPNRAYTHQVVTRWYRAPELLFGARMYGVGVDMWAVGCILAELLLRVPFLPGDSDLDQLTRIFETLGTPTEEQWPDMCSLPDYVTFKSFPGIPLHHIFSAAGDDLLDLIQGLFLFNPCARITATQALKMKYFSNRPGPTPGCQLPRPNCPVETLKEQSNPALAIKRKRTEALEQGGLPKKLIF
Chain of Cyclin-dependent kinase 19 (Homo sapiens) (Q9BWU1 whole entry, looked up): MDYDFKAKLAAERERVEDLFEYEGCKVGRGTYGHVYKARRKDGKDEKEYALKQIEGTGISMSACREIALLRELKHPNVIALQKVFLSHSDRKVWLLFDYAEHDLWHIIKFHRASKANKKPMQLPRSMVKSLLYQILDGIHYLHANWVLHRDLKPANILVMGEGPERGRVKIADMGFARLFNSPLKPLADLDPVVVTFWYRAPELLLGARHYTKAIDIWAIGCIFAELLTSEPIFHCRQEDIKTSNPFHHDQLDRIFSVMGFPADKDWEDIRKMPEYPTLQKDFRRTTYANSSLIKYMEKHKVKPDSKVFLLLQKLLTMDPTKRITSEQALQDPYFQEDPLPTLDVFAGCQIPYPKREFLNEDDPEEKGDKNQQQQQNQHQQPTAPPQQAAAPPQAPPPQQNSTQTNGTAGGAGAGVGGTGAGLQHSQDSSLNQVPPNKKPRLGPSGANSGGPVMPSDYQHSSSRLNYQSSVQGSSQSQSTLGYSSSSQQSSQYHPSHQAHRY

As for `O[C@H]1CC[C@H](Nc2nccc(-c3n[nH]c4ccccc34)n2)CC1`, the inhibition was 94% in [1], 69% in experiment [2] and less than 50% in experiment [3].

For the compound `O[C@H]1CC[C@H](Nc2nccc(-n3ccc4ccccc43)n2)CC1`, the inhibition in experiment [1] was 80%; in experiment [4], 83%; in experiment [2], less than 50%; in experiment [5] it was less than 50%; in experiment [6], less than 50%; in experiment [7], 74%. Besides, the inhibition in experiment [3] is less than 50%; in experiment [8], 87%; in experiment [9], 70%.

Regarding `O[C@H]1CC[C@H](Nc2nccc(-n3ncc4ccccc43)n2)CC1`, the inhibition in experiment [1] was 76%; in experiment [4] it was 81%; in experiment [2], less than 50%; in experiment [5] it was less than 50%; in [6] it was less than 50%; in experiment [7] it was 77%. Besides, the values for the inhibition in experiment [3], in [8] and in [9] were less than 50%, 88% and less than 50%, respectively.

On to `O[C@H]1CC[C@H](Nc2nccc(-n3nnc4ccccc43)n2)CC1`, for which the inhibition is 79% in experiment [1]; 92% in experiment [4]; less than 50% in experiment [2]; less than 50% in experiment [5]; 73% in experiment [6]; 78% in [7]. Besides, the inhibition is less than 50% in experiment [3], 85% in experiment [8] and 82% in experiment [9].

For the compound `CS(=O)(=O)CCCOc1cccc2c1ccn2-c1ccnc(N[C@H]2CC[C@H](C(=O)N3CCC(O)CC3)CC2)n1`, the inhibition in experiment [4] was greater than 85%.
